Test results reported in PubChem BioAssay AID1117339.
Calls of active or inactive are those of the source. How the calls were made is not given here.

Test system: HCT116 viability, CellTiter-Glo, GSK3B-pretreated
Assay: HCT116 cell viability decrease, GSK3B pretreatment – CellTiter-Glo, IC50, dose response (AID 1117339)

| SMILES | IC50 |
| --- | --- |
| CCCCCCCCCCCCCC[N+](C)(C)C | 0.754 µM |
| Cc1ccc([N+](=O)[O-])[c]2c1[O][Hg]2 | 2.22 µM (inactive) |
| OCCN1CCN(CC/C=C2/c3ccccc3Sc3ccc(C(F)(F)F)cc32)CC1 | 2.89 µM |
